target: T1, KRAS G12C 1-169, his-tagged protein, GDP-loaded (Homo sapiens, UniProt P01116, G12C); assay: Biochemical assay: covalent binding to KRAS G12C measured by mass spectrometry
T1 construct: KRAS G12C 1-169, his-tagged protein, GDP-loaded
Description: Test compounds are prepared as 10 mM stock solutions in DMSO (Fisher cat# BP-231-100). KRAS G12C 1-169, his-tagged protein, GDP-loaded is diluted to […] in buffer (20 mM Hepes, 150 mM NaCl, 1 mM MgCl2). Compounds are tested for activity as follows:
Compounds are diluted to 50× final test concentration in DMSO in 96-well storage plates. Compound stock solutions are vortexed before use and observed carefully for any sign of precipitation. Dilutions are as follow: • For 100 μM final compound concentration, compounds are diluted to 5000 μM (5 μl 10 mM compound stock +5 μl DMSO and mixed well by pipetting. • For 30 μM final compound concentration, compounds are diluted to 1500 μM (3 μl 10 mM compound stock +17 μl DMSO) and mixed well by pipetting. • For 10 μM final compound concentration, compounds are diluted to 500 μM (2 μl 10 mM compound stock +38 μl DMSO) and mixed well by pipetting. 49 μl of the stock protein solution is added to each well of a 96-well PCR plate (Fisher cat#1423027). […] of the diluted 50× compounds are added to appropriate wells in the PCR plate using 12-channel pipettor. Reactions are mixed carefully and thoroughly by pipetting up/down with a 200 μl multi-channel pipettor. The plate is sealed well with aluminum plate seal, and stored in drawer at room temperature for 24 hrs. 5 μl of 2% formic acid (Fisher cat# Al 117) in DI H2O is then added to each well followed by mixing with a pipette. The plate is then resealed with aluminum seal and stored on dry ice until analyzed as described below.
The above described assays are analyzed by mass spectrometry according to the following procedure:
The MS instrument is set to positive polarity, 2 GHz resolution, and low mass (1700) mode and allowed to equilibrate for 30 minutes. The instrument is then calibrated, switched to acquisition mode and the appropriate method loaded.
After another 30 minute equilibration time, a blank batch (i.e., buffer) is run to ensure equipment is operating properly. The samples are thawed at 37° C. for 10 minutes, briefly centrifuged, and transfer to the bench top. Wells Al and H12 are spiked with 1 uL 500 uM internal standard peptide, and the plates centrifuged at 2000×g for 5 minutes. The method is then run and masses of each individual well recorded.
The masses (for which integration data is desired) for each well are pasted into the platemap and exported from the analysis. Masses for the internal standards are exported as well. The data at 50 ppm is extracted for the +19 charge state, and identity of well Al is assigned using the internal standard spike and integrated. Peak data is exported as a TOF list and the above steps are repeated individually, for the +20, 21, 22, 23, 24, and 25 charge states.

T1 sequence (P01116 1-169 isoform P01116-2 G12C): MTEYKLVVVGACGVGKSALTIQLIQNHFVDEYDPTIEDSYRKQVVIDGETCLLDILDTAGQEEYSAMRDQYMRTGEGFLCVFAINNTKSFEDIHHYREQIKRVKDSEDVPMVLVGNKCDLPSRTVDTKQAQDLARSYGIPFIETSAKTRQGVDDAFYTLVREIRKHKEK

| Compound | Binding % |
| --- | --- |
| C=CC(=O)N1CCN(c2cnc3cc(-c4c(C)ccc5[nH]ncc45)c(Cl)cn23)CC1 [Compound 1, 1-(4-(6-chloro-7-(5-methyl-1H-indazol-4-yl)imidazo[1,2-a]pyridin-3-yl)piperazin-1-yl)prop-2-en-1-one] | ++ (++ indicates binding activity greater than 5% and up to 50%) |
| C=CC(=O)N1CCN(c2cnc3c(F)c(-c4c(O)cccc4F)c(Cl)cn23)CC1 [Compound 20, 1-(4-(6-chloro-8-fluoro-7-(2-fluoro-6-hydroxyphenyl)imidazo[1,2-a]pyridin-3-yl)piperazin-1-yl)prop-2-en-1-one] | +++ (+++ indicates binding activity 50% or greater) |
| C=CC(=O)N1CCN(c2c(NC(C)=O)nc3cc(-c4c(F)cccc4OC)c(Cl)cn23)CC1 [Compound 21, N-(3-(4-acryloylpiperazin-1-yl)-6-chloro-7-(2-fluoro-6-methoxyphenyl)imidazo[1,2-a]pyridin-2-yl)acetamide] | + (+ indicates binding activity up to 5) |
| C=CC(=O)N1CCN(c2c(NC(C)=O)nc3cc(-c4c(O)cccc4F)c(C)cn23)CC1 [Compound 24, N-(3-(40 acryloylpiperazin-1-yl)-7-(2-fluoro-6-hydroxyphenyl)-6-methylimidazo[1,2-a]pyridin-2-yl)acetamide] | + (+ indicates binding activity up to 5) |
| C=CC(=O)N1CCN(C2=NCC(=O)Nc3c2cc(Cl)c(-c2c(O)cccc2F)c3F)CC1 [Compound 25, 5-(4-acryloylpiperazin-1-yl)-7-chloro-9-fluoro-8-(2-fluoro-6-hydroxyphenyl)-1,3-dihydro-2H-benzo[e][1,4] diazepin-2-one] | + (+ indicates binding activity up to 5) |
| C=CC(=O)N1CCN(C2=COC3C=C(c4c(O)cccc4F)C(Cl)=CC23)CC1 (stereo not drawn) [Compound 26, 1-(4-(5-chloro-6-(2-fluoro-6-hydroxyphenyl)-3a,7a-dihydrobenzofuran-3-yl)piperazin-1-yl)prop-2-en-1-one] | +++ (+++ indicates binding activity 50% or greater) |
